This is an account of results in patent US8318938B2, “Trans-fused chromenoisoquinolines synthesis and methods for use” (Purdue Research Foundation, priority 2006, dated 2012).

Several values for one entry are separate records, joined by “and”; a condition that tells them apart may be missing. Equal values may be shown once. Where a name gives a salt, the structure may show the parent alone. Where only a bound is given, the exact number is not on record here.

Series [1] has as its target endogenous human D1-like dopamine receptor in MCF7 cells (Homo sapiens, UniProt P21728). The conditions noted are these: for Intrinsic Activity (% dopamine), Endogenous hD1: normalized to maximal cyclic AMP accumulation with dopamine (FIG. 3A). How it is done:
The data presented in FIG. 2B are the mean±SEM of three independent experiments assayed in duplicate.
The data presented in FIGS. 3B-C are the mean±SEM of three independent experiments assayed in duplicate.
(§1) Cell Culture. […] Cells were grown at 37° C. in a humidified incubator with 6% CO2.
(§2) Cyclic AMP accumulation assay. Assays were performed on confluent monolayers of cells in 48-well plates. […] Cyclic AMP stimulation assays were performed on HEK D1-CRELuc or MCF7 cells by incubating the cells with ligands for 15 minutes at 37° C. Cyclic AMP inhibition assays were performed on HEK-α2C cells in the presence 30 μM forskolin to stimulate cyclic AMP formation. All assays were performed in the presence of 500 μM isobutylmethylxanthine (IBMX) and terminated with ice cold 3% trichloroacetic acid.
(§3) Cyclic AMP binding assay. […] Briefly, cellular lysate (15-20 μL) was added to cyclic AMP binding buffer (100 mM Tris-HCl, pH 7.4, 100 mM NaCl, 5 mM EDTA) in assay tubes containing 1 nM final concentration [^3H]cyclic AMP and bovine adrenal gland cyclic AMP binding protein (100-150 μg in 500 μl binding buffer). The binding assay was incubated on ice at 4° C. for 2-4 hours and terminated by harvesting with ice cold wash buffer (10 mM Tris, 0.9% NaCl) using a 96-well Packard Filtermate cell harvester and Millipore Multiscreen Harvest Plates (Millipore, Billerica, Mass., USA). Packard Microscint O (40 μL) was added to each well after drying. Radioactivity was counted using a Packard Topcount scintillation counter. Standard curves ranging from 0.01 to 300 pmol of cyclic AMP were used to determine the concentration of cyclic AMP in each sample. Data analysis was performed on GraphPad Prism software.

Series [2] concerns the target T1, α2C adrenergic receptor (Homo sapiens, UniProt P18825).
T1 construct: expressed in transfected cells; host or cells: HEK293 (HEK-α2C)
T1 sequence (P18825 1-462): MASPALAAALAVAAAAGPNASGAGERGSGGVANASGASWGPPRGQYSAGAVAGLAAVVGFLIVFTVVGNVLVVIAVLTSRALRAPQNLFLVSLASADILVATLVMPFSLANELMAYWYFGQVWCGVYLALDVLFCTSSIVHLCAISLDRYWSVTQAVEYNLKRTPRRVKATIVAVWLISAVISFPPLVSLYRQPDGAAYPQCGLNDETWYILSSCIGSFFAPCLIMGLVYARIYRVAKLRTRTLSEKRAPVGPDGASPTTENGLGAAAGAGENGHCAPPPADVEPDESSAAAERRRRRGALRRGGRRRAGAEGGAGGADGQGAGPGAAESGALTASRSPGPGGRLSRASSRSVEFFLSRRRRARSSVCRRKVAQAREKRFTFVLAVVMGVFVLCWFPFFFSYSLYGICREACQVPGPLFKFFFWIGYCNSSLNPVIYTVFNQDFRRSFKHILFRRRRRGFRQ
As to the kind of experiment: NIMH-sponsored Psychoactive Drug Screening Program affinity screen. The format is binding. The conditions noted are these: NIMH PDSP screen.

The target in series [3] is T1, α2C adrenergic receptor. Description: Inhibition of forskolin-stimulated cyclic AMP accumulation in HEK293 cells stably expressing the α2C receptor. The conditions noted are these: for EC50 / Intrinsic Activity (% forskolin), α2C Adrenergic: HEK-α2C cells; for EC50: 30 μM forskolin, 15 min at 37° C.; for Intrinsic Activity (% forskolin), α2C Adrenergic: inhibition of cyclic AMP stimulated by 30 μM forskolin. The class given is cell-based.
Excerpt: The data presented have been normalized to the maximal cyclic AMP accumulation observed in the presence of forskolin alone and are the mean±SEM of three independent experiments assayed in duplicate.
Briefly, HEK D1-CreLuc cells were created by a two step process. HEK293 cells were co-transfected with the pBabe Puro and pGL-CreLuc vectors. Puromycin resistant clones, which expressed the functional cyclic AMP response element-linked luciferase reporter gene, were selected. Next, HEK-CreLuc cells were stably transfected with pcDNA3.1 (+)-D1. Clones were assayed for D1 receptor function by measuring cyclic AMP accumulation and luciferase activity. HEK-α2C cells were constructed by stable transfection with pcDNA.3(+)-α2C. G418 resistant clones were selected and assayed for α2C function by measuring inhibition of forskolin-stimulated cyclic AMP accumulation.
as §1, §2, §3

For series [4], the target named is human dopamine D1 receptor (Homo sapiens, UniProt P21728). Description: Cyclic AMP accumulation in HEK cells stably expressing the human dopamine D1 receptor (cloned hD1). The format is cell-based. The conditions noted are these: normalized to maximal cyclic AMP accumulation with dopamine.
human dopamine D1 receptor, sequence (P21728 whole entry): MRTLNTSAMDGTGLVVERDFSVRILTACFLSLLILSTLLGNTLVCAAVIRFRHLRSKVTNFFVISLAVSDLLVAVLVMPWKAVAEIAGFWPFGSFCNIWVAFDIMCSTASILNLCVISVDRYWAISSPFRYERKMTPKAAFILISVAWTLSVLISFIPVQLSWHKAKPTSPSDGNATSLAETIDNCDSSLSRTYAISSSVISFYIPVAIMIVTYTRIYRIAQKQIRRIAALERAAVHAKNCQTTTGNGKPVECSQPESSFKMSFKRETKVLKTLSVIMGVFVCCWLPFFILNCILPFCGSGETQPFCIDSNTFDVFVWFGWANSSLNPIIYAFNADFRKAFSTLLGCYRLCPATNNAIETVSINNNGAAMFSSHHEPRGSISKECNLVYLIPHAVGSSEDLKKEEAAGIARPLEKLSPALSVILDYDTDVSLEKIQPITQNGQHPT
Procedure: Cyclic AMP accumulation assay. Assays were performed on confluent monolayers of cells in 48-well plates. […] Cyclic AMP stimulation assays were performed on HEK D1-CRELuc or MCF7 cells by incubating the cells with ligands for 15 minutes at 37° C. […] All assays were performed in the presence of 500 μM isobutylmethylxanthine (IBMX) and terminated with ice cold 3% trichloroacetic acid.
The target of series [5] is native D1-like dopamine receptors in porcine striatal tissue (Sus scrofa, UniProt P50130). As to the kind of experiment: Porcine striatal cyclase assay (cyclic AMP stimulation in striatal homogenate). The conditions noted are these: read-out: intrinsic activity in porcine striatal tissue. The class given is biochemical. How it is done:
as §3
The homogenate was centrifuged at 1,000×g for 10 min at 4° C.

endogenous human D1-like dopamine receptor in MCF7 cells, sequence (P21728 whole entry): as above
native D1-like dopamine receptors in porcine striatal tissue, sequence (P50130 whole entry): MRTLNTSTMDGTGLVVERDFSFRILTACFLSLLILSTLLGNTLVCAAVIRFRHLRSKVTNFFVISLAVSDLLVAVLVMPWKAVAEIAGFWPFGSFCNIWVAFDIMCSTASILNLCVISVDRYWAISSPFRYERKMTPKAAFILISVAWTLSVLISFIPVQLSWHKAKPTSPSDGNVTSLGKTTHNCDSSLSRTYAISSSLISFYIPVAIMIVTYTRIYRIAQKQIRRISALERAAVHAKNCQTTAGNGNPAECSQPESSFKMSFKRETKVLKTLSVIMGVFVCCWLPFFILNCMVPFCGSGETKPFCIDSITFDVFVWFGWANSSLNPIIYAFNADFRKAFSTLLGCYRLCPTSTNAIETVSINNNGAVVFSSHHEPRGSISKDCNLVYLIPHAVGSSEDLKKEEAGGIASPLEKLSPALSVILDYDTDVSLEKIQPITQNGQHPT

The term melting point denotes the temperature of the solid-liquid transition. `Cl.c1ccc2c(c1)CN[C@@H]1COc3cc4c(cc3[C@@H]21)OCO4`: the melting point was 163 °C. For `Br.Cc1ccc2c(c1)C1c3cc(O)c(O)cc3OCC1NC2` (stereo not drawn), the melting point is 195 to 200 °C (dec.). The compound `Cl.c1ccc2c(c1)CN[C@H]1COc3cc4c(cc3[C@H]21)OCO4` yielded a melting point of 163 °C. A word on the Ki: it is a measure of affinity in units of concentration, obtained from inhibition or displacement. Low readings indicate tighter binding, high ones weaker binding. For `Cl.Oc1cc2c(cc1O)C1c3ccccc3CNC1CO2` (racemic) [(±)-ODHX, 2,3-Dihydroxy-6a,7,8,12b-tetrahydro-6H-chromeno[3,4-c]isoquinoline hydrochloride], the “Intrinsic Activity (% dopamine), Endogenous hD1” value in series [1] was determined as 80 ± 3 % dopamine. Besides, the Ki on α2C adrenergic receptor [2] was about 2 nM.

`O=C1N[C@@H]2COc3cc4c(cc3[C@H]2c2ccsc21)OCO4` (racemic) [Example 23, (±)-Trans-9,10-methylenedioxy-5,5a,6,11b-tetrahydro-4H-chromeno[3,4-b]thieno[3,2-d]pyridin-4-one] returned a melting point of over 250 °C. Broadly, the EC50 is the concentration giving half of the maximal effect. A higher EC50 goes with lower potency in that assay. With `Oc1cc2c(cc1O)[C@H]1c3ccccc3CN[C@@H]1CO2` [(+)-ODHX, (+)-(6aS,12bR)-2,3-Dihydroxy-6a,7,8,12b-tetrahydro-6H-chromeno[3,4-c]isoquinoline hydrochloride], at α2C adrenergic receptor [3], the “intrinsic activity as share of the intrinsic activity of (−)-ODHX at α2C receptor” value is listed as “ca. 50%” and the concentration for a half-maximal effect (EC50) came out at 151 ± 25 nM. Moreover, the “Intrinsic Activity (% forskolin), α2C Adrenergic” value (from here on “Intrinsic Activity (% forskolin)”) on α2C adrenergic receptor [3] (hydrochloride) was 34±6 % forskolin and 34 ± 7 % forskolin. In addition, the “Intrinsic Activity (% dopamine), Endogenous hD1” value in series [1] is recorded as 131 ± 13 % dopamine. Moreover, in series [4] (hydrochloride), the “Intrinsic Activity (% dopamine), Cloned hD1” value is 109±6 % dopamine. For the same compound, in series [5], the Emax was determined as 115 ± 15%.

On to `Cl.Oc1cc2c(cc1O)[C@@H]1c3ccccc3CN[C@H]1CO2` [(−)-ODHX, (−)-(6aR,12bS)-2,3-Dihydroxy-6a,7,8,12b-tetrahydro-6H-chromeno[3,4-c]isoquinoline hydrochloride], for which, on α2C adrenergic receptor [3], the EC50 is 4.4 nM and the “Intrinsic Activity (% forskolin)” value is recorded as 69 ± 2 % forskolin. Moreover, the “effect alone on cyclic AMP levels” value in series [1] (10 μM alone) is listed as “significant increase in cyclic AMP levels”. Also, the “antagonism of dopamine- and (+)-ODHX-stimulated cyclic AMP accumulation” value in series [1] (dose-response curves in presence of 10 μM (−)-ODHX (FIGS. 3B-C)) was “reduced the intrinsic activity and potency of both dopamine and (+)-ODHX”. The “Intrinsic Activity (% dopamine), Cloned hD1” value in series [4] stood at 85 ± 6 % dopamine. Consider `Clc1cccc(Cl)c1N=C1NCCN1` [Clonidine, reference compound], for which the “Intrinsic Activity (% forskolin)” value on α2C adrenergic receptor [3] is 61 ± 5 % forskolin. `C1=NC2COc3cc4c(cc3C2c2ccccc21)OCO4` (stereo not drawn) [Example 5, 2,3-Methylenedioxy-6a,12b-dihydro-6H-chromeno[3,4-c]isoquinoline] had a melting point of 191 °C. `c1ccc2c(c1)CNC1COc3cc4c(cc3C21)OCO4` (stereo not drawn) [Example 6, 2,3-Methylenedioxy-6a,7,8,12b-tetrahydro-6H-chromeno[3,4-c]isoquinoline] displayed a melting point of 188 °C. As for `Cc1ccc2c(c1)C1c3cc4c(cc3OCC1NC2=O)OCO4` (stereo not drawn) [Example 16, 2,3-methylenedioxy-11-methyl-6a,7-dihydro-6H-12bH-chromeno[3,4-c]isoquinolin-8-one], the melting point was over 250 °C.
